In patent publication US6319929A, “Suksdorfin analogs, compositions thereof, and methods for making and using thereof” (priority 1998, dated 2001):
Several values for one entry are separate records, joined by “and”; a condition that tells them apart may be missing. Identical values can stand only once. Like-named read-outs stand apart in the source and are kept apart here.

Columns and labels:
[1] = tested on: chronically HIV-1 infected U1 cells; assay: Virus expression from chronically HIV-1 infected monocytic cell line U1 (p24 antigen ELISA); format: cell-based
Procedure: (§1) Effects of suksdorfin analogs on Chronically HIV-1 infected cells. The experimental design is as follows: The phorbol ester, PMA (10^-8 M) and various concentrations of suksdorfin were either added or not added to both the chronically HIV-1 infected T cell line (ACH-2) and to the chronically HIV-1 infected monocytic cell line (U1). Cell-free supernatant was collected 72 hours post culture for p24 antigen ELISA.
Compound 16 was also assayed on ACH-2 (chronically HIV-1 infected T cell line). U1 cells are also chronically HIV-1 infected cells but they are from the monocytic cell line, U937. The data presented in Table 8 indicates the following points:
(§2) Chronically HIV-1 infected cell lines. HIV-1 chronically infected T cell line, ACH-2^12, and HIV-1 chronically infected promonocytic cell line, U1 13, were continuously maintained in RPMI 1640 with 10% fetal calf serum (FCS). For experiments, the cell lines were only used in the […] of growth. Cells (0.5×10^6 cells/well) and either various concentrations of suksdorfin or medium alone were added to 24-well plates in the presence or absence of PMA (10^-8 M). After 72 hours at 37° C. and 5% CO2, an aliquot of the cell-free supernatants were collected and analyzed for p24 antigen by ELISA (see below for details of p24 antigen ELISA).

[2] = tested on: chronically HIV-1 infected ACH-2 cells; assay: Virus expression from chronically HIV-1 infected T cell line ACH-2 (p24 antigen ELISA); format: cell-based
Procedure: as §1
Results (Table 11) from adding compound 16 to the chronically HIV-infected T cell line, ACH-2, according to methods in above examples. ACH-2 are a chronically HIV-1 infected T cell line. It was derived from A3.01 cells which is a subclone of the CEM cell line. The data below indicates the following points:
as §2

[3] = tested on: HIV-1 replication in H9 cells; assay: HIV-1 replication inhibition in acutely infected H9 lymphocytes (p24 antigen ELISA); format: cell-based, HIV-1 (IIIB strain)
Procedure: HIV inhibition assay. The HIV inhibition was measured as described herein. Briefly, H9 cells, a T cell line, (3.5×10^6 cells/ml) were incubated in the presence or absence of HIV-1 (IIIB strain, 0.01-0.1 TCID50 /cell) for 1 hour at 37° C. Cells were washed thoroughly and resuspended at a final concentration of 2×10^5 cells/ml in the presence or absence of compound. After incubation for 3-4 days at 37° C., the cell density of uninfected cultures was determined by cell count to assess toxicity of the drug. An aliquot of each cell-free supernatant was assayed by p24 antigen ELISA to quantitate the amount of HIV-1 present in the infected cultures. Test compounds were considered to be active at a particular concentration if p24 antigen levels were less than 70% of infected, untreated controls and were nontoxic to uninfected H9 cells.
HIV Growth Inhibition Assay: The T cell line, H9, and the promonocytic cell line, U937, were maintained separately in continuous culture with complete medium (RPMI 1640 and […] fetal calf serum (FCS) at 5% CO2 and 37° C. Cell lines were used in experiments only when in log phase of growth; whereas, uninfected peripheral blood mononuclear cells (PBMCs) were first stimulated with PHA (1 μg/ml) for 3 days. All cell targets were incubated with HIV-1 (IIIB isolate, TCID50 10 ^4 IU/mi, at a multiplicity of infection of 0.1-0.01 IU/cell) for 1 hour at 37° C. and 5% CO2. The cell lines and PBMCs were washed thoroughly to remove unabsorbed virions and resuspended at 4×10^5 cells/ml in complete medium or complete medium with 10% v/v interleukin […] IL-2, respectively. Aliquots ( ml) were placed in wells of 24-well culture plates containing an equal volume of test compound (diluted in the appropriate culture medium). After incubation for 4 days at 37° C., cell density of uninfected cultures was determined by counting cells in a Coulter counter to assess toxicity of the test compound. A p24 antigen ELISA assay was used to determine the level of virus released in the medium of the HIV-infected cultures. The p24 antigen assay uses a HIV-1 anti-p24 specific monoclonal antibody as the capture antibody coated-on 96-well plates. Following a sample incubation period, rabbit serum containing antibodies for HIV-1 p24 is used to tag any p24 "captured" onto the microtiter well surface. Peroxidase conjugated goat anti-rabbit serum is then used to tag HIV-1 p24 specific rabbit antibodies which have complexed with captured p24. […] The cut-off for the p24 ELISA assay is 12. pg/ml. P24 in the culture medium was quantitated against a standard curve containing known amounts of p24. The effective (EC50) and inhibitory (IC50) concentrations (for anti-HIV activity and cytotoxicity, respectively) were determined graphically. Both the EC50 and IC50 values were calculated by plotting drug concentration versus percent inhibition, and then identifying a 50% inhibition value from the graph.

With `Cc1cn([C@H]2C[C@H](N=[N+]=[N-])[C@@H](CO)O2)c(=O)[nH]c1=O` [AZT, azidothymidine, reference compound] the P24 ([1]; U1, +PMA, 0.01 μg/ml) was 9626 pg/mL, the P24 ([1]; U1, +PMA, 0.1 μg/ml) was 4363 pg/mL and the P24 ([1]; U1, +PMA, 1 μg/ml) was 7898 pg/mL. It also gave a P24 ([1]; U1, +PMA, 10 μg/ml) of 8653 pg/mL, a P24 ([1]; U1, -PMA, 0.01 μg/ml) of 50 pg/mL and a P24 ([1]; U1, -PMA, 0.1 μg/ml) of 53 pg/mL. For the same molecule, the P24 ([1]; U1, -PMA, 1 μg/ml) was 72 pg/mL, the P24 ([1]; U1, -PMA, 10 μg/ml) was 97 pg/mL and the P24 ([2]; Table 11 (ACH-2), +PMA, 0.01 μg/ml) was 21,373 pg/ml. The P24 ([2]; Table 11 (ACH-2), +PMA, 0.1 μg/ml) was 10,621 pg/ml, the P24 ([2]; Table 11 (ACH-2), +PMA, 1 μg/ml) was 17,088 pg/ml and the P24 ([2]; Table 11 (ACH-2), +PMA, 10 μg/ml) was 16,584 pg/ml. The P24 ([2]; Table 11 (ACH-2), -PMA, 0.01 μg/ml) was 796 pg/mL, the P24 ([2]; Table 11 (ACH-2), -PMA, 0.1 μg/ml) was 942 pg/mL and the P24 ([2]; Table 11 (ACH-2), -PMA, 1 μg/ml) was 904 pg/mL. The P24 ([2]; Table 11 (ACH-2), -PMA, 10 μg/ml) was 939 pg/mL, the EC50 ([3]; Human immunodeficiency virus 1, H9, Table 3, H9 lymphocytes) was 40 nM and the EC50 ([3]; Human immunodeficiency virus 1, H9, Table 17, acutely infected H9 lymphocytes) was 150 nM. For the same molecule, the “Therapeutic Index” value ([3]; Table 3, H9 lymphocytes) was 50,000 and the “Therapeutic Index” value ([3]; Table 17, H9) was 12,500.

`CC1(C)Oc2ccc3ccc(=O)oc3c2[C@@H](OC(=O)[C@@]23CC[C@@](C)(C(=O)O2)C3(C)C)[C@H]1OC(=O)[C@@]12CC[C@@](C)(C(=O)O1)C2(C)C` [Compound 16, 3',4'-Di-O-(-)-Camphanoyl-(+)-cis-Khellactone] gave a P24 ([1]; U1, +PMA, 0.0000102 μg/ml) of 7328 pg/mL, a P24 ([1]; U1, +PMA, 0.0000512 μg/ml) of 8710 pg/mL and a P24 ([1]; U1, +PMA, 0.00025 μg/ml) of 7757 pg/mL. It also gave a P24 ([1]; U1, +PMA, 0.00128 μg/ml) of 6335 pg/mL, a P24 ([1]; U1, +PMA, 0.0064 μg/ml) of 6419 pg/mL and a P24 ([1]; U1, +PMA, 0.032 μg/ml) of 8090 pg/mL. For the same molecule, the P24 ([1]; U1, +PMA, 0.16 μg/ml) was 7162 pg/mL, the P24 ([1]; U1, +PMA, 0.8 μg/ml) was 8390 pg/mL and the P24 ([1]; U1, +PMA, 4 μg/ml) was 8742 pg/mL. The P24 ([1]; U1, +PMA, 20 μg/ml) was 9530 pg/mL, the P24 ([1]; U1, -PMA, 0.0000102 μg/ml) was 52 pg/mL and the P24 ([1]; U1, -PMA, 0.0000512 μg/ml) was 56 pg/mL. The P24 ([1]; U1, -PMA, 0.00025 μg/ml) was 78 pg/mL, the P24 ([1]; U1, -PMA, 0.00128 μg/ml) was 99 pg/mL and the P24 ([1]; U1, -PMA, 0.0064 μg/ml) was 90 pg/mL. It also gave a P24 ([1]; U1, -PMA, 0.032 μg/ml) of 101 pg/mL, a P24 ([1]; U1, -PMA, 0.16 μg/ml) of 76 pg/mL and a P24 ([1]; U1, -PMA, 0.8 μg/ml) of 88 pg/mL. For the same molecule, the P24 ([1]; U1, -PMA, 4 μg/ml) was 41 pg/mL, the P24 ([1]; U1, -PMA, 20 μg/ml) was 95 pg/mL and the “effect on virus expression of PMA-stimulated U1 cells (in words)” value ([1]; with PMA) was “did not suppress virus replication”. The “induction of virus expression from U1 cells (in words)” value ([1]; without PMA) was “did not induce the U1 cells to make virus”, the P24 ([2]; ACH-2, +PMA, 0.0000102 μg/ml) was 17,938 pg/ml and the P24 ([2]; ACH-2, +PMA, 0.0000512 μg/ml) was 16,079 pg/ml. For the same molecule, the P24 ([2]; ACH-2, +PMA, 0.00025 μg/ml) was 22,756 pg/ml, the P24 ([2]; ACH-2, +PMA, 0.00128 μg/ml) was 22,344 pg/ml and the P24 ([2]; ACH-2, +PMA, 0.032 μg/ml) was 24,650 pg/ml. For the same molecule, the P24 ([2]; ACH-2, +PMA, 0.064 μg/ml [0.010 μM] (so in the source)) was 24,364 pg/ml, the P24 ([2]; ACH-2, +PMA, 0.16 μg/ml) was 21,865 pg/ml and the P24 ([2]; ACH-2, +PMA, 0.8 μg/ml) was 20,183 pg/ml. For the same molecule, the P24 ([2]; ACH-2, +PMA, 4 μg/ml) was 23,547 pg/ml, the P24 ([2]; ACH-2, +PMA, 20 μg/ml) was 24,858 pg/ml and the P24 ([2]; ACH-2, -PMA, 0.0000102 μg/ml) was 666 pg/mL. It also gave a P24 ([2]; ACH-2, -PMA, 0.0000512 μg/ml) of 659 pg/mL, a P24 ([2]; ACH-2, -PMA, 0.00025 μg/ml) of 777 pg/mL and a P24 ([2]; ACH-2, -PMA, 0.00128 μg/ml) of 811 pg/mL. For the same molecule, the P24 ([2]; ACH-2, -PMA, 0.032 μg/ml) was 1319 pg/mL, the P24 ([2]; ACH-2, -PMA, 0.064 μg/ml [0.010 μM] (so in the source)) was 955 pg/mL and the P24 ([2]; ACH-2, -PMA, 0.16 μg/ml) was 1174 pg/mL. The P24 ([2]; ACH-2, -PMA, 0.8 μg/ml) was 976 pg/mL, the P24 ([2]; ACH-2, -PMA, 4 μg/ml) was 1194 pg/mL and the P24 ([2]; ACH-2, -PMA, 20 μg/ml) was 1509 pg/mL. The “effect on virus expression of PMA-stimulated ACH-2 cells (in words)” value ([2]; with PMA) was “did not suppress virus replication”, the “induction of virus expression from ACH-2 cells (in words)” value ([2]; without PMA) was “did not induce the ACH-2 cells to make virus” and the suppression ([3]; 0.000256 μg/ml, separate assays, H9) was 35%. The inhibition at 0.000256 µg/mL ([3]; Human immunodeficiency virus 1, H9, 0.000256 μg/ml, separate assays, H9, read-out: suppression) was 44%, the EC50 ([3]; Human immunodeficiency virus 1, H9, H9, text to Table 7, read-out: EC50) was ≥ 0.000256 µg/mL and 0.41 nM and the EC50 ([3]; Human immunodeficiency virus 1, H9, H9 lymphocytes, Table 3, read-out: ED^50 (the source's name)) was ≥ 0.41 nM. The EC50 ([3]; Human immunodeficiency virus 1, H9, Table 3, H9 lymphocytes, read-out: EC50) was 0.41 nM, the EC50 ([3]; Human immunodeficiency virus 1, H9, Table 7, read-out: EC5) was 0.000256 µg/mL and 0.41 nM and the EC50 ([3]; Human immunodeficiency virus 1, H9, Table 17, acutely infected H9 lymphocytes, read-out: EC50) was 0.41 nM. For the same molecule, the “anti-HIV activity in H9 cells (in words)” value ([3]; acutely infected H9 cells) was “potent anti-HIV activity”.
